In ChEMBL document CHEMBL5532680, “Identification of a Sonically Activated Degrader of Methionine Adenosyltransferase 2A by an in Silico Approach Assisted with the Hole-Electron Analysis” (J Med Chem, 2024) one finds Activity data, which are given here for four compounds.

The source made the active and inactive calls. No cut-off for these calls is given here.

Experiment [1] is described as follows: Induction of ROS generation in PBS at 10 uM incubated for 10 mins under 1.0 MHz, 1.2W/cm2 ultrasound treatment by DCFH staining based fluorescence assay. Format: functional.
For a further experiment, the system named is HCT-116. The experiment is described as follows: Induction of apoptosis in MTAP knocked out human HCT-116 cells at 0.1 uM preincubated for 24 hrs followed by sonication for 4 mins by annexin V-FITC/PI staining based flow cytometry analysis relative to control. It counts as functional, cell-based. The conditions noted are these: time 1444.0 min.

On to `CCOc1ncc2cc(-c3ccc4c(c3)C3(CC3)CO4)c(=O)n(-c3ccc(OC(F)F)cc3)c2n1`, for which, in experiment [1], the result was Active.

As for `CCOc1ncc2cc(-c3ccc4c(c3)OCC3(CCN(C)CC3)O4)c(=O)n(-c3ccc(OC(F)F)cc3)c2n1`, the result in experiment [1] was Active. Regarding `CCOc1ncc2cc(-c3ccc4nc5n(c4c3)CCN(C(C)=O)C5)c(=O)n(-c3ccc(OC(F)F)cc3)c2n1`, the outcome in experiment [1] was inactive. Consider `CCOc1ncc2cc(-c3ccc4nc5n(c4c3)CCN(C)C5)c(=O)n(-c3ccc(OC(F)F)cc3)c2n1`, for which the outcome with HCT-116 was Active. The outcome in experiment [1] was inactive.
